Assay results taken from patent publication US20150216182A1, “COMPOSITIONS AND METHODS OF THE ATTRACTION AND REPULSION OF INSECTS” (Olfactor Laboratories, Inc., priority 2012, published 2015).

Experiments:
cpA neurons [1] = test: extracellular single-sensillum electrophysiology: inhibition of CO2-responsive (cpA) neuronal activity; details: for Class: Table 10, single compounds, percent reduction in cpA activity compared to baseline; for Class (inhibitor class of the individual component): Inh = inhibitor
female mosquitoes = test: whole plant or invertebrate; details: 2 h; for mortality at 200 µg/mL: read-out: % mortality with 0.2 mg/ml; for mortality at 2000 µg/mL: read-out: % mortality with 2 mg/ml
cpA neurons [2] = test: extracellular single-sensillum electrophysiology: activation of cpA neuronal activity; details: for Class: Table 6, single compounds, increase over baseline cpA neuronal activity
larvae = test: larvicidal activity assay; assay type: in vivo; details: 24 hour exposure, dead larvae / total larvae; for pest or weed control at 0.25 %: read-out: % Lethality with 0.25% compound conc.; for pest or weed control at 100 ppm: read-out: % Lethality at 100 ppm
Protocol: A 6-well plate (Corning Life Sciences, Tewksbury, Mass.) is used to test a compound's larvicidal activity. […] After a 24 hour exposure, the number of dead larvae are counted and recorded.
The results are presented in Table 17 as % lethality (the number of dead larvae divided by the total number of larvae).

[3] = Table 13, single component alone
[4] = Table 16, single component alone

## COc1ncccc1C
cpA neurons [1]; 1% concentration in paraffin oil
  effect on CO2-receptor activity (FIG. 1): inhibitor

## CCOC(=O)CC(C)=O [OLI0022, ethylacetoacetate]
Female mosquitoes
  mortality at 200 µg/mL: 0%
  mortality at 2000 µg/mL: 0%
cpA neurons [2]
  Class: Moderate Activator (Moderate activators yield an increase in neuronal activity that is between 40 and 60 spk/sec over baseline neuronal activity)
cpA neurons [2]; Table 9, component A tested individually
  Comp A Class: Mod
cpA neurons [2]; Table 9, component B tested individually
  Comp B Class: Mod
cpA neurons [2]; Table 15, single component alone, Mod Actv
  Class B (activator class of the individual component): Mod

## C=CC(=O)CC [OLI0023, ethylvinylketone]
cpA neurons [2]
  Class: Moderate Activator (Moderate activators yield an increase in neuronal activity that is between 40 and 60 spk/sec over baseline neuronal activity)

## Cc1ccc(C=O)c(C)c1 [OLI0030, 2,4-dimethyl benzaldehyde]
cpA neurons [2]
  Class: Mild Activator (mild activators yield an increase in neuronal activity that is between 20 and 40 spk/sec over baseline neuronal activity)

## CC1=CC(C)C(C=O)CC1 (centres unmarked) [OLI0031, 2,4-dimethyl-3-cyclohexene-carboxaldehyde]
cpA neurons [2]
  Class: Mild Activator (mild activators yield an increase in neuronal activity that is between 20 and 40 spk/sec over baseline neuronal activity)

## COc1cc(C)ccc1O [OLI0033, 2-methoxy-4-methylphenol]
cpA neurons [2]
  Class: Mild Activator (mild activators yield an increase in neuronal activity that is between 20 and 40 spk/sec over baseline neuronal activity)

## CC(C=O)c1ccccc1 (centres unmarked) [OLI0034, 2-phenylpropionaldehyde]
cpA neurons [2]
  Class: Mild Activator (mild activators yield an increase in neuronal activity that is between 20 and 40 spk/sec over baseline neuronal activity)

## CCCC(=O)CC [OLI0035, 3-hexanone]
cpA neurons [2]
  Class: Mild Activator (mild activators yield an increase in neuronal activity that is between 20 and 40 spk/sec over baseline neuronal activity)

## CCc1ccc(C=O)cc1 [OLI0036, 4-ethylbenzaldehyde]
cpA neurons [2]
  Class: Mild Activator (mild activators yield an increase in neuronal activity that is between 20 and 40 spk/sec over baseline neuronal activity)

## CC1=CC(=O)CC(C)(C)C1=O [OLI0037, 4-oxoisophorone]
cpA neurons [2]
  Class: Mild Activator (mild activators yield an increase in neuronal activity that is between 20 and 40 spk/sec over baseline neuronal activity)

## CC(=O)c1cnccn1 [OLI0038, acetyl-2-pyrazine]
cpA neurons [2]
  Class: Mild Activator (mild activators yield an increase in neuronal activity that is between 20 and 40 spk/sec over baseline neuronal activity)

## CCCC(=O)OC(C)C(C)=O (centres unmarked) [OLI0039, butan-3-one-2yl butanoate]
cpA neurons [2]
  Class: Mild Activator (mild activators yield an increase in neuronal activity that is between 20 and 40 spk/sec over baseline neuronal activity)

## COC(=O)CCC(=O)OC [OLI0040, dimethyl succinate]
cpA neurons [2]
  Class: Mild Activator (mild activators yield an increase in neuronal activity that is between 20 and 40 spk/sec over baseline neuronal activity)

## CCOC(=O)CC(C)O (centres unmarked) [OLI0042, ethyl 3-hydroxybutyrate]
larvae; 0.25% compound
  pest or weed control at 0.25 %: 0%
larvae; 100 ppm compound
  pest or weed control at 100 ppm: 0%
Female mosquitoes
  mortality at 200 µg/mL: 0%
  mortality at 2000 µg/mL: 0%
cpA neurons [2]
  Class: Mild Activator (mild activators yield an increase in neuronal activity that is between 20 and 40 spk/sec over baseline neuronal activity)

## CCOC=O [OLI0044, ethylformate]
cpA neurons [2]
  Class: Mild Activator (mild activators yield an increase in neuronal activity that is between 20 and 40 spk/sec over baseline neuronal activity)

## CCOC(=O)C(C)C [OLI0045, ethylisobutyrate]
cpA neurons [2]
  Class: Mild Activator (mild activators yield an increase in neuronal activity that is between 20 and 40 spk/sec over baseline neuronal activity)

## CCOC(=O)CC(C)C [OLI0046, ethylisovalerate]
cpA neurons [2]
  Class: Mild Activator (mild activators yield an increase in neuronal activity that is between 20 and 40 spk/sec over baseline neuronal activity)

## CCOC(=O)CCC(C)=O [OLI0047, ethyllevulinate]
cpA neurons [2]
  Class: Mild Activator (mild activators yield an increase in neuronal activity that is between 20 and 40 spk/sec over baseline neuronal activity)

## CCOCc1ccco1 [OLI0048, furfurylethylether]
cpA neurons [2]
  Class: Mild Activator (mild activators yield an increase in neuronal activity that is between 20 and 40 spk/sec over baseline neuronal activity)

## CCCCCCC=O [OLI0049, heptaldehyde]
cpA neurons [2]
  Class: Mild Activator (mild activators yield an increase in neuronal activity that is between 20 and 40 spk/sec over baseline neuronal activity)

## CCCC(=O)CCC [OLI0050, heptanone-4]
cpA neurons [2]
  Class: Mild Activator (mild activators yield an increase in neuronal activity that is between 20 and 40 spk/sec over baseline neuronal activity)

## CCCCCC=O [OLI0051, hexanal]
cpA neurons [2]
  Class: Mild Activator (mild activators yield an increase in neuronal activity that is between 20 and 40 spk/sec over baseline neuronal activity)

## CC(=O)OCC(C)C [OLI0053, isobutyl acetate]
cpA neurons [2]
  Class: Mild Activator (mild activators yield an increase in neuronal activity that is between 20 and 40 spk/sec over baseline neuronal activity)

## CCC(=O)OCC(C)C [OLI0054, isobutyl propionate]
cpA neurons [2]
  Class: Mild Activator (mild activators yield an increase in neuronal activity that is between 20 and 40 spk/sec over baseline neuronal activity)

## C/C=C/C(=O)OCC(C)C [OLI0055, isobutyl trans-2-butenoate]
cpA neurons [2]
  Class: Mild Activator (mild activators yield an increase in neuronal activity that is between 20 and 40 spk/sec over baseline neuronal activity)

## CCCC(=O)OC(C)C [OLI0056, isopropyl butyrate]
cpA neurons [2]
  Class: Mild Activator (mild activators yield an increase in neuronal activity that is between 20 and 40 spk/sec over baseline neuronal activity)

## C/C=C(\C)C(=O)OC(C)C [OLI0057, isopropyl tiglate]
cpA neurons [2]
  Class: Mild Activator (mild activators yield an increase in neuronal activity that is between 20 and 40 spk/sec over baseline neuronal activity)

## COC(=O)CC(C)C [OLI0058, methyl isovalerate]
cpA neurons [2]
  Class: Mild Activator (mild activators yield an increase in neuronal activity that is between 20 and 40 spk/sec over baseline neuronal activity)

## Cc1cccc(C=O)c1 [OLI0060, m-tolualdehyde]
cpA neurons [2]
  Class: Mild Activator (mild activators yield an increase in neuronal activity that is between 20 and 40 spk/sec over baseline neuronal activity)

## COc1ccccc1C=O [OLI0061, o-anisaldehyde]
cpA neurons [2]
  Class: Mild Activator (mild activators yield an increase in neuronal activity that is between 20 and 40 spk/sec over baseline neuronal activity)

## CC(=O)OCC=C(C)C [OLI0062, prenylacetate]
cpA neurons [2]
  Class: Mild Activator (mild activators yield an increase in neuronal activity that is between 20 and 40 spk/sec over baseline neuronal activity)

## CC(C)=C1CC[C@@H](C)CC1=O [OLI0064, R-+ pulegone]
cpA neurons [2]
  Class: Mild Activator (mild activators yield an increase in neuronal activity that is between 20 and 40 spk/sec over baseline neuronal activity)

## CCC/C=C\CCOC(C)=O [OLI0078, (Z)-hept-3-enylacetate]
cpA neurons [1]
  Class: Mild Inhibitor (mild inhibitors (reducing activity by 20-40%))
cpA neurons [1]; [3]
  Class (inhibitor class of the individual component): Mild
cpA neurons [1]; [4]
  Class (inhibitor class of the individual component): Mild

## CCCCCCCCO [OLI0080, 1-octanol]
cpA neurons [1]
  Class: Mild Inhibitor (mild inhibitors (reducing activity by 20-40%))
cpA neurons [1]; [3]
  Class (inhibitor class of the individual component): Mild
cpA neurons [1]; [4]
  Class (inhibitor class of the individual component): Mild

## COC1=C(C)OC(C)C1=O (centres unmarked) [OLI0081, 2,5-dimethyl-4-methoxy-3(2H) furanone]
cpA neurons [1]
  Class: Mild Inhibitor (mild inhibitors (reducing activity by 20-40%))

## CCCC(=O)OC(C)(C)Cc1ccccc1 [OLI0082, alpha,alpha-dimethyl phenethyl butyrate]
cpA neurons [1]
  Class: Mild Inhibitor (mild inhibitors (reducing activity by 20-40%))
cpA neurons [1]; [3]
  Class (inhibitor class of the individual component): Mild

## CC/C=C\CCOC(=O)CCC [OLI0083, cis-3-hexenyl butyrate]
cpA neurons [1]
  Class: Mild Inhibitor (mild inhibitors (reducing activity by 20-40%))
cpA neurons [1]; [3]
  Class (inhibitor class of the individual component): Mild

## CCOC(=O)c1cccnc1 [OLI0085, ethyl nicotinate]
cpA neurons [1]
  Class: Mild Inhibitor (mild inhibitors (reducing activity by 20-40%))

## CCCCCCC(=O)OCC [OLI0086, Ethylheptanoate]
cpA neurons [1]
  Class: Mild Inhibitor (mild inhibitors (reducing activity by 20-40%))

## O=C(C=Cc1ccccc1)OCCc1ccccc1 [OLI0103, phenethyl cinnamate]
larvae; 0.25% compound
  pest or weed control at 0.25 %: 0%
larvae; 100 ppm compound
  pest or weed control at 100 ppm: 0%
Female mosquitoes
  mortality at 200 µg/mL: 5%
  mortality at 2000 µg/mL: 25%

## CC(C)C(=O)OCC=Cc1ccccc1 [OLI0108, cinnamyl isobutyrate]
Female mosquitoes
  mortality at 200 µg/mL: 10%
  mortality at 2000 µg/mL: 100%

## O=Cc1ccccc1O [OLI0116, Salicylaldehyde]
Female mosquitoes
  mortality at 200 µg/mL: 0%
  mortality at 2000 µg/mL: 0%

## CC(C)C(=O)OCC=Cc1ccccc1 [OLI0117, cinnamyl isobutyrate]
larvae; 0.25% compound
  pest or weed control at 0.25 %: 100%
larvae; 100 ppm compound
  pest or weed control at 100 ppm: 0%

## Ultrazur [OLI0118]
larvae; 0.25% compound
  % Lethality with 0.25% compound conc.: 100% lethal
larvae; 100 ppm compound
  % Lethality at 100 ppm: 0% lethal

## dipropylenglykol-monomethyl ether [OLI0041]
cpA neurons [2]
  Class: Mild Activator (mild activators yield an increase in neuronal activity that is between 20 and 40 spk/sec over baseline neuronal activity)

## ethyl-2,3,5(6)-dimethyl pyrazine [OLI0043]
cpA neurons [2]
  Class: Mild Activator (mild activators yield an increase in neuronal activity that is between 20 and 40 spk/sec over baseline neuronal activity)
